Results taken from patent publication US4623662A, “Antiatherosclerotic ureas and thioureas” (American Cyanamid Company, priority 1985, dated 1986).
Read-outs that look alike come from different tables or passages of the source.

Experiments:
[1] = target: T1, fatty acyl CoA: cholesterol acyl transferase (ACAT) (Rattus norvegicus, UniProt O70536); assay: Inhibition of fatty acyl CoA:cholesterol acyl transferase (ACAT), rat adrenal enzyme; type: biochemical; conditions: for IC50: several concentrations
T1 construct: The supernatant, containing the microsomal fraction, served as the source of the cholesterol-esterifying enzyme; from tissue; host or cells: rat adrenals, supernatant of 1,000 x g centrifugation containing the microsomal fraction
T1 sequence (O70536 1-545): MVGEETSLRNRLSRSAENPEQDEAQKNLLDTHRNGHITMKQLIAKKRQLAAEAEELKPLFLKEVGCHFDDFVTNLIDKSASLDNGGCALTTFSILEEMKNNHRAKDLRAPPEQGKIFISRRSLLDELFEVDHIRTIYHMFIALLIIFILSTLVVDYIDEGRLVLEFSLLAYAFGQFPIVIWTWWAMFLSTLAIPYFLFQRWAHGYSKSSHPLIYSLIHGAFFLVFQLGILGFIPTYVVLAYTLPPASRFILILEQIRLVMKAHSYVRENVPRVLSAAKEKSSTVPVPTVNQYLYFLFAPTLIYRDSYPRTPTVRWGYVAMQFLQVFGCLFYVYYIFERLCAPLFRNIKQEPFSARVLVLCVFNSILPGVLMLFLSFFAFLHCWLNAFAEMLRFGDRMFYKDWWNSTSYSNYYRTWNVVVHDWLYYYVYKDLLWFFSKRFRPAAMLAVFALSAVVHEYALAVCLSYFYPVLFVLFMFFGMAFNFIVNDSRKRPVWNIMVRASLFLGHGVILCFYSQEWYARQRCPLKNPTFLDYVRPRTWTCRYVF
How it was run: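 Read-out was scintillation counting of [14C]cholesteryl ester, isolated by TLC, after 10 min at 37° C with [14C]oleoyl CoA. Beforehand, compound (final 5.2 μg/ml in single-concentration tests) was preincubated 10 min at 37° C with BSA and rat adrenal microsomal supernatant in pH 7.4 phosphate. Results given as percent inhibition versus control or IC50 over several concentrations.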

[2] = system: cholesterol absorption; assay: Inhibition of cholesterol absorption in rats fed 1% cholesterol:0.5% cholic acid diet; type: in vivo, male Sprague-Dawley rats; conditions: po, 336 h, rat, dose .03% of the diet, 2 weeks
How it was run: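 Compound was mixed into the diet (0.001-0.03%) of male Sprague-Dawley rats, 150-170 g, on a 1% cholesterol/0.5% cholic acid regimen for 2 weeks. At sacrifice, serum cholesterol (enzymatic) and liver neutral-sterol cholesterol were measured; values given as percent of compound-free control rats.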

[3] = rat adrenal ACAT, final concentration 5.2 μg/ml, read-out: % Inhibition
[4] = read-out: LS (liver sterol), percentage of control values
[5] = read-out: SS (serum sterol), percentage of control values

Compound | inhibition at 5.2 µg/mL [1, 3] [%] | response vs control in vivo at 0.03 % [2, 4] [%] | response vs control in vivo at 0.03 % [2, 5] [%] | inhibition at 5.2 µg/mL [1] [%] | IC50 ([1]; rat adrenal ACAT) [nM]
O=C(Nc1cc(Cl)c(Cl)cc1Cl)N(Cc1ccc(Cl)cc1)Cc1cccc2ccccc12 [1-(4-Chlorobenzyl)-1-(1-naphthylmethyl)-3-(2,4,5-trichlorophenyl)urea] | 86 | 97 | 84 |  | 
O=C(Nc1c(Cl)cc(Cl)cc1Cl)N(Cc1ccc(Cl)cc1)Cc1cccc2ccccc12 [1-(4-Chlorobenzyl)-1-(1-naphthylmethyl)-3-(2,4,6-trichlorophenyl)urea] | 77 | 12 | 38 |  | 
O=C(Nc1ccc(Cl)cc1Cl)N(Cc1ccc(Cl)cc1)Cc1cccc2ccccc12 [1-(4-Chlorobenzyl)-1-(1-naphthylmethyl)-3-(2,4-dichlorophenyl)urea] | 92 | 48 | 50 |  | 
O=C(Nc1ccc(F)cc1F)N(Cc1ccc(Cl)cc1)Cc1cccc2ccccc12 [1-(4-Chlorobenzyl)-1-(1-naphthylmethyl)-3-(2,4-difluorophenyl)urea] | 84 | 30 | 45 |  | 
Cc1cc(Cl)ccc1NC(=O)N(Cc1ccc(Cl)cc1)Cc1cccc2ccccc12 [1-(4-Chlorobenzyl)-1-(1-naphthylmethyl)-3-(2-methyl-4-chlorophenyl)urea] | 94 | 17 | 35 |  | 
O=C(Nc1cccc(C(F)(F)F)c1)N(Cc1ccc(Cl)cc1)Cc1cccc2ccccc12 [1-(4-Chlorobenzyl)-1-(1-naphthylmethyl)-3-(3-trifluoromethylphenyl)urea] | 80 | 92 | 87 |  | 
Cc1ccc(NC(=O)N(Cc2ccc(-c3ccccc3)cc2)Cc2ccc(Cl)c(Cl)c2)c(C)c1 [1-(4-Phenylbenzyl)-1-(3,4-dichlorobenzyl)-3-(2,4-dimethylphenyl)urea] | 36.3 | 17 | 49 |  | 
CCCCCOc1ccc(CN(Cc2ccc(CCCCC)cc2)C(=O)Nc2cc(Cl)c(Cl)cc2Cl)cc1 [1-(4-n-Pentylbenzyl)-1-(4-n-pentyloxybenzyl)-3-(2,4,5-trichlorophenyl)urea] | 80 | 92 | 85 |  | 
CCCCCOc1ccc(CN(Cc2ccc(CCCCC)cc2)C(=O)Nc2c(Cl)cc(Cl)cc2Cl)cc1 [1-(4-n-Pentylbenzyl)-1-(4-n-pentyloxybenzyl)-3-(2,4,6-trichlorophenyl)urea] | 95.5 | 76 | 100 |  | 
CCCCCOc1ccc(CN(Cc2ccc(CCCCC)cc2)C(=O)Nc2ccc(Cl)cc2Cl)cc1 [1-(4-n-Pentylbenzyl)-1-(4-n-pentyloxybenzyl)-3-(2,4-dichlorophenyl)urea] | 85 | 92 | 91 |  | 
CCCCCOc1ccc(CN(Cc2ccc(CCCCC)cc2)C(=O)Nc2ccc(F)cc2F)cc1 [1-(4-n-Pentylbenzyl)-1-(4-n-pentyloxybenzyl)-3-(2,4-difluorophenyl)urea] |  | 67 | 55 | 90 | 
CCCCc1ccc(CN(CCCCC(C)(C)C)C(=O)Nc2c(Cl)cc(Cl)cc2Cl)cc1 [1-(5,5-Dimethylhexyl)-1-[4-(n-butyl)benzyl]-3-(2,4,6-trichlorophenyl)urea] |  | 32 | 45 | 90 | 
CCCCc1ccc(CN(CCCCC(C)(C)C)C(=O)Nc2ccc(F)cc2F)cc1 [1-(5,5-Dimethylhexyl)-1-[4-(n-butyl)benzyl]-3-(2,4-difluorophenyl)urea] |  | 58 | 59 | 90 | 
CCCCc1ccc(CN(CCCCC(C)(C)C)C(=O)Nc2ccc(Cl)cc2C)cc1 [1-(5,5-Dimethylhexyl)-1-[4-(n-butyl)benzyl]-3-(4-chloro-2-methylphenyl)urea] |  | 34 | 42 | 90 | 
CC(C)CCN(Cc1ccc(C(C)C)cc1)C(=O)Nc1c(F)cc(F)cc1F [1-(Isopentyl)-1-[4-(isopropyl)benzyl]-3-(2,4,6-trifluorophenyl)urea] |  | 35 | 31 |  | 530
CC(C)CCN(Cc1ccc(C(C)C)cc1)C(=O)Nc1ccc(F)cc1F [1-(Isopentyl)-1-[4-(isopropyl)benzyl]-3-(2,4-difluorophenyl)urea] |  | 37 | 49 |  | 3370
Cc1cc(Cl)cc(C)c1NC(=O)N(CCC(C)C)Cc1ccc(C(C)C)cc1 [1-(Isopentyl)-1-[4-(isopropyl)benzyl]-3-(4-chloro-2,6-dimethylphenyl)urea] |  | 23 | 23 |  | 540
CCCCCCCOc1ccc(CN(CCCC)C(=O)Nc2c(C)cc(C)cc2C)cc1 [1-(n-Butyl)-1-(4-heptyloxybenzyl)-3-(2,4,6-trimethylphenyl)urea] |  | 31 | 66 | 97.3 | 
CCCCN(Cc1ccccc1)C(=O)Nc1ccc(Cl)cc1C [1-(n-Butyl)-1-benzyl-3-(4-chloro-2-methylphenyl)urea] | 89 | 62 | 72 |  | 
CCCCCCCN(CCc1ccccc1)C(=O)Nc1ccc(Cl)cc1Cl [1-(n-Heptyl)-1-(2-phenylethyl)-3-(2,4-dichlorophenyl)urea] | 91.8 | 88 | 81 |  | 
CCCCCCCN(CCc1ccccc1)C(=O)Nc1ccc(F)cc1F [1-(n-Heptyl)-1-(2-phenylethyl)-3-(2,4-difluorophenyl)urea] | 94.1 | 57 | 59 |  | 
CCCCCCCN(CCc1ccccc1)C(=O)Nc1ccc(C)cc1C [1-(n-Heptyl)-1-(2-phenylethyl)-3-(2,4-dimethylphenyl)urea] | 95.7 | 36 | 57 |  | 
CCCCCCCN(CCc1ccccc1)C(=O)Nc1ccc(Cl)cc1C [1-(n-Heptyl)-1-(2-phenylethyl)-3-(2-methyl-4-chlorophenyl)urea] | 93.8 | 49 | 66 |  | 
CCCCCCCN(CCc1ccccc1)C(=O)Nc1ccc(Cl)cc1C(F)(F)F [1-(n-Heptyl)-1-(2-phenylethyl)-3-(2-trifluoromethyl-4-chlorophenyl)urea] |  | 80 | 79 | 88.3 | 
CCCCCCCN(Cc1ccc(OCCCC)cc1)C(=O)Nc1cc(C)c(C)cc1C [1-(n-Heptyl)-1-(4-butyloxybenzyl)-3-(2,4,5-trimethylphenyl)urea] | 95.6 | 17 | 32 |  | 
CCCCCCCN(Cc1ccc(OCCCC)cc1)C(=O)Nc1ccc(C)cc1C [1-(n-Heptyl)-1-(4-butyloxybenzyl)-3-(2,4-dimethylphenyl)urea] | 94.6 | 22 | 26 |  | 
CCCCCCCN(Cc1ccc(OCCCC)cc1)C(=O)Nc1c(Cl)cc(Cl)cc1Cl [1-(n-Heptyl)-1-(4-n-butoxybenzyl)-3-(2,4,6-trichlorophenyl)urea] |  | 11 | 35 | 90 | 
CCCCCCCN(Cc1ccc(OCCCC)cc1)C(=O)Nc1ccc(F)cc1F [1-(n-Heptyl)-1-(4-n-butoxybenzyl)-3-(2,4-difluorophenyl)urea] | 82.7 | 25 | 63 |  | 
CCCCCCCN(Cc1ccc(OCCCC)cc1)C(=O)Nc1ccc(Cl)cc1C [1-(n-Heptyl)-1-(4-n-butoxybenzyl)-3-(2-methyl-4-chlorophenyl)urea] | 91.7 | 15 | 53 |  | 
CCCCCCCN(Cc1ccc(OCCCC)cc1)C(=O)Nc1cccc(C(F)(F)F)c1 [1-(n-Heptyl)-1-(4-n-butoxybenzyl)-3-(3-trifluoromethylphenyl)urea] | 82.4 | 86 | 80 |  | 
